Experiments:
SRC-3 [1] = assay: Western blot of SRC-3 protein expression in prostate cancer cell lines; type: cell-based; conditions: 1 μM, 6 hours
Source text: (§1) Ponceau S was used to stain proteins.

prostate cancer cells = assay: MTT cell viability assay, prostate cancer cells; conditions: 10-3000 nM, 48 hours, PC3, DU145, LNCaP
gastric cancer cells = assay: MTT cell viability assay, gastric cancer cells; conditions: 10-3000 nM, 48 hours, AGS, MKN-45, Hs746T, NCI-N87
prostate cancer = conditions: Phase 2 human clinical trial, prostate cancer patients; cited from earlier work
DEK = assay: Western blot of DEK protein levels in prostate, breast and gastric cancer cells, 24 hours, two doses; conditions: gastric cancer cells (MKN-45 and NCI-N87)
SRC-3 [2] = assay: Subcellular fractionation and Western blot of SRC-3 in nucleus and cytoplasm; type: cell-based; conditions: 1000 nM, 6 hours
Source text: as §1
(§2) Nuclear and cytosolic fractions were obtained and analyzed by western blot. Antibodies used include SRC-3, PRK, tubulin, histone-H3, and actin.

PRK1 = assay: Western blot of PRK1 protein expression in prostate cancer cell lines; conditions: LNCaP, PC3 and DU145 cells (any of the tested cell lines), 1 μM, 6 hours
PKC = conditions: read-out: IC50 PKC; cited from earlier work
SRC3 = assay: Western blot of SRC3 protein levels in prostate, breast and gastric cancer cells, 24 hours, two doses; conditions: for SRC3 protein levels: two doses
PRK-1 = assay: Subcellular fractionation and Western blot of PRK-1 in nucleus and cytoplasm; type: cell-based; conditions: 6 hours
Source text: as §1, §2

SMILES: C[C@]12O[C@H](C[C@]1(O)CO)n1c3ccccc3c3c4c(c5c6ccccc6n2c5c31)CNC4=O [lestaurtinib]
- SRC-3 protein expression level (SRC-3 [1]; DU145 cells): not significantly altered
- SRC-3 protein expression level (SRC-3 [1]; LNCaP cells): profound decrease
- SRC-3 protein expression level (SRC-3 [1]; PC3 cells): not significantly altered
- viability of prostate cancer cells (prostate cancer cells): effective in reducing viability
- viability of gastric cancer cells (gastric cancer cells): effective in reducing viability
- primary clinical endpoint of reduced PSA levels (prostate cancer): failed to achieve the primary clinical endpoint of reduced PSA levels
- DEK levels (DEK): did not change
- reduction in cytoplasmic SRC-3, LNCaP compared to PC3 or DU145 (SRC-3 [2]; LNCaP cells): much more dramatic
- nuclear SRC-3 protein levels (SRC-3 [2]; LNCaP, DU145 or PC3 cells): did not caused a reduction
- SRC-3 protein in the cytoplasm (SRC-3 [2]; all three cell lines (LNCaP, PC3, DU145)): reduced
- PRK1 protein expression level (PRK1): not significantly altered
- IC50 (PKC): 226 nM
- SRC3 protein levels (SRC3; MCF7 breast cancer cells): most profound dose-dependent decrease
- SRC3 expression levels (SRC3; MKN-45 gastric cancer cells, higher dose): showed a decrease
- SRC3 protein levels (SRC3; ZR75-1 breast cancer cells): no obvious change
- cytoplasmic PRK-1 levels (PRK-1; LNCaP, PC3, DU145, 1000 nM): unaltered
- nuclear PRK-1 protein levels (PRK-1; all three cell lines (LNCaP, PC3, DU145), 1000 nM): increased

Source: patent US10449202B2, “Rationale-based design of a targeted therapy for cancer” (priority 2013, dated 2019)
